# Source: PubChem BioAssay (NCI)
#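 Dose response: 5 concentrations. Exposure: 48 h. Format: 96-well plates. Endpoint: linear interpolation; highest concentration if not reached. Definition used: TGI = concentration required for complete inhibition of growth.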
# Experiments:
# Test in all cases: inhibition of tumour cell growth, NCI panel, 48 h
# RPMI-8226 leukemia = test system: RPMI-8226 leukemia
# UO-31 renal = test system: UO-31 renal
# EKVX NSCLC = test system: EKVX NSCLC
# MDA-N = test system: MDA-N
# ACHN renal = test system: ACHN renal
# SN12C renal = test system: SN12C renal
# SK-MEL-5 melanoma = test system: SK-MEL-5 melanoma
# OVCAR-4 ovarian = test system: OVCAR-4 ovarian
# 786-0 renal = test system: 786-0 renal
# SF-295 CNS = test system: SF-295 CNS
# HCT-15 colon = test system: HCT-15 colon
# SK-MEL-28 melanoma = test system: SK-MEL-28 melanoma
# CCRF-CEM leukemia = test system: CCRF-CEM leukemia
# SK-MEL-2 melanoma = test system: SK-MEL-2 melanoma
# RXF 393 renal = test system: RXF 393 renal
# A549 NSCLC = test system: A549 NSCLC
# MDA-MB-231 breast = test system: MDA-MB-231 breast
# SR leukemia = test system: SR leukemia
smiles,measurement,setting,value
CCCNC(=O)c1cc(NC(=O)c2cc(NC(=O)CCS(=O)(=O)OC)cn2C)cn1C,TGI,RPMI-8226 leukemia,> 100 µM
same,TGI,UO-31 renal,> 100 µM
same,TGI,EKVX NSCLC,> 100 µM
same,TGI,MDA-N,> 69.8 µM
same,TGI,ACHN renal,> 100 µM
same,TGI,SN12C renal,29.7 µM
same,TGI,SK-MEL-5 melanoma,44.1 µM
same,TGI,OVCAR-4 ovarian,> 73.6 µM
same,TGI,786-0 renal,> 71.7 µM
same,TGI,SF-295 CNS,> 100 µM
same,TGI,HCT-15 colon,> 100 µM
same,TGI,SK-MEL-28 melanoma,> 100 µM
same,TGI,CCRF-CEM leukemia,3.67 µM
same,TGI,SK-MEL-2 melanoma,53.8 µM
same,TGI,RXF 393 renal,29 µM
same,TGI,A549 NSCLC,> 100 µM
same,TGI,MDA-MB-231 breast,> 70.8 µM
same,TGI,SR leukemia,> 100 µM
Nc1c(O)c(C(=O)O)cc2ccccc12,TGI,RPMI-8226 leukemia,95.7 µM
same,TGI,UO-31 renal,> 100 µM
same,TGI,EKVX NSCLC,> 100 µM
same,TGI,MDA-N,32.3 µM
same,TGI,ACHN renal,64.3 µM
same,TGI,SN12C renal,> 100 µM
same,TGI,SK-MEL-5 melanoma,27.9 µM
same,TGI,OVCAR-4 ovarian,48.9 µM
same,TGI,786-0 renal,36.4 µM
same,TGI,SF-295 CNS,> 100 µM
same,TGI,HCT-15 colon,> 100 µM
same,TGI,SK-MEL-28 melanoma,> 100 µM
same,TGI,CCRF-CEM leukemia,> 100 µM
same,TGI,SK-MEL-2 melanoma,35 µM
same,TGI,RXF 393 renal,> 100 µM
same,TGI,A549 NSCLC,> 100 µM
same,TGI,MDA-MB-231 breast,28.8 µM
same,TGI,SR leukemia,> 100 µM
